Biological target: T1, HCV genotype 1b (BK) NS3 modified with a R155K mutation (Hepatitis C virus genotype 1b, UniProt P26663, R1181K)
T1 construct: HCV genotype 1b (BK) NS3 modified with a R155K mutation
Test: HCV NS3 protease time-resolved fluorescence (TRF) assay, NS3 protease 1b R155K Ki activity
Format: biochemical
Conditions: HCV genotype 1b (BK) NS3 with R155K mutation; TRF peptide substrate 100 nM; Ki derived from IC50
Procedure, shortened: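 Pre-incubation of NS3/NS4A protease (genotype 1b BK, R155K) with inhibitor for 30 min, then 1 h at room temperature with 100 nM TRF peptide substrate in pH 7.5 HEPES buffer with 10 mM DTT. Reaction quenched with pH 5.5 MES; time-resolved fluorescence read (ex 340/em 615 nm). Ki derived from four-parameter IC50 fit via IC50=Ki(1+[S]/KM).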

`C=C[C@@H]1C[C@]1(NC(=O)[C@@H]1C[C@@H]2CN1C(=O)[C@H](C1CCCC1)NC(=O)O[C@@H]1CCC[C@H]1CCCCCn1c(nc3cccc(OC)c3c1=O)O2)C(=O)NS(=O)(=O)C1CC1` [(3aR,7S,10S,12R,25aR)-7-cyclopentyl-N-((1R,2S)-1-{[(cyclopropylsulfonyl)amino]carbonyl}-2-vinylcyclopropyl)-18-methoxy-5,8,19-trioxo-1,2,3,3a,5,6,7,8,11,12,21,22,23,24,25,25a-hexadecahydro-10H,19H-9,12-methanocyclopenta[18,19][1,10,3,6,12]dioxatriazacyclononadecino[11,12-b]quinazoline-10-carboxamide] gave a Ki of 0.1 to 0.5 nM.

`C=C[C@@H]1C[C@]1(NC(=O)[C@@H]1C[C@@H]2CN1C(=O)[C@H](C(C)(C)C)NC(=O)O[C@@H]1CCC[C@H]1CCCCCn1c(cc3cc(Cl)ccc3c1=O)O2)C(=O)NS(=O)(=O)C1CC1` [(3aR,7S,10S,12R,25aR)-7-tert-butyl-16-chloro-N-((1R,2S)-1-{[(cyclopropylsulfonyl)amino]carbonyl}-2-vinylcyclopropyl)-5,8,19-trioxo-1,2,3,3a,5,6,7,8,11,12,21,22,23,24,25,25a-hexadecahydro-10H,19H-9,12-methanocyclopenta[18,19][1,10,3,6,12]dioxatriazacyclononadecino[12,11-b]isoquinoline-10-carboxamide] was tested, and the Ki was < 0.1 nM.

In the case of `CC[C@@H]1C[C@]1(NC(=O)[C@@H]1C[C@@H]2CN1C(=O)[C@H](C(C)(C)C)NC(=O)O[C@@H]1CCC[C@H]1CCCCCn1c(cc3cc(OC)ccc3c1=O)O2)C(=O)NS(=O)(=O)C1CC1` [(3aR,7S,10S,12R,25aR)-7-tert-butyl-N-((1R,2R)-1-{[(cyclopropylsulfonyl)amino]carbonyl}-2-ethylcyclopropyl)-16-methoxy-5,8,19-trioxo-1,2,3,3a,5,6,7,8,11,12,21,22,23,24,25,25a-hexadecahydro-10H,19H-9,12-methanocyclopenta[18,19][1,10,3,6,12]dioxatriazacyclononadecino[12,11-b]isoquinoline-10-carboxamide], the Ki is reported as 0.1 to 0.5 nM.

In the case of `C=C[C@@H]1C[C@]1(NC(=O)[C@@H]1C[C@@H]2CN1C(=O)[C@H](C(C)(C)C)NC(=O)O[C@@H]1CCC[C@H]1CCCCCn1c(cc3cc(OC)ccc3c1=O)O2)C(=O)NS(=O)(=O)C1CC1` [(3aR,7S,10S,12R,25aR)-7-tert-butyl-N-((1R,2S)-1-{[(cyclopropylsulfonyl)amino]carbonyl}-2-vinylcyclopropyl)-16-methoxy-5,8,19-trioxo-1,2,3,3a,5,6,7,8,11,12,21,22,23,24,25,25a-hexadecahydro-10H,19H-9,12-methanocyclopenta[18,19][1,10,3,6,12]dioxatriazacyclononadecino[12,11-b]isoquinoline-10-carboxamide], the Ki is reported as < 0.1 nM.

With `C=C[C@@H]1C[C@]1(NC(=O)[C@@H]1C[C@@H]2CN1C(=O)[C@H](C1CCCC1)NC(=O)O[C@@H]1CCC[C@H]1CCCCCn1c(nc3cc(Br)ccc3c1=O)O2)C(=O)NS(=O)(=O)C1CC1` [(3aR,7S,10S,12R,25aR)-16-bromo-7-cyclopentyl-N-((1R,2S)-1-{[(cyclopropylsulfonyl)amino]carbonyl}-2-vinylcyclopropyl)-5,8,19-trioxo-1,2,3,3a,5,6,7,8,11,12,21,22,23,24,25,25a-hexadecahydro-10H,19H-9,12-methanocyclopenta[18,19][1,10,3,6,12]dioxatriazacyclononadecino[11,12-b]quinazoline-10-carboxamide] the Ki was 0.1 to 0.5 nM.

Work on `CC[C@@H]1C[C@]1(NC(=O)[C@@H]1C[C@@H]2CN1C(=O)[C@H](C1CCCCC1)NC(=O)O[C@@H]1CCC[C@H]1CCCCCn1c(cc3cc(Cl)ccc3c1=O)O2)C(=O)NS(=O)(=O)C1CC1` [(3aR,7S,10S,12R,25aR)-16-chloro-7-cyclohexyl-N-((1R,2R)-1-{[(cyclopropylsulfonyl)amino]carbonyl}-2-ethylcyclopropyl)-5,8,19-trioxo-1,2,3,3a,5,6,7,8,11,12,21,22,23,24,25,25a-hexadecahydro-10H,19H-9,12-methanocyclopenta[18,19][1,10,3,6,12]dioxatriazacyclononadecino[12,11-b]isoquinoline-10-carboxamide] yielded a Ki of 0.1 to 0.5 nM.

With `C=C[C@@H]1C[C@]1(NC(=O)[C@@H]1C[C@@H]2CN1C(=O)[C@H](C1CCCCC1)NC(=O)O[C@@H]1CCC[C@H]1CCCCCn1c(cc3cc(Cl)ccc3c1=O)O2)C(=O)NS(=O)(=O)C1CC1` [(3aR,7S,10S,12R,25aR)-16-chloro-7-cyclohexyl-N-((1R,2S)-1-{[(cyclopropylsulfonyl)amino]carbonyl}-2-vinylcyclopropyl)-5,8,19-trioxo-1,2,3,3a,5,6,7,8,11,12,21,22,23,24,25,25a-hexadecahydro-10H,19H-9,12-methanocyclopenta[18,19][1,10,3,6,12]dioxatriazacyclononadecino[12,11-b]isoquinoline-10-carboxamide] the Ki was < 0.1 nM.

Molecule `CC[C@@H]1C[C@]1(NC(=O)[C@@H]1C[C@@H]2CN1C(=O)[C@H](C1CCCC1)NC(=O)O[C@@H]1CCC[C@H]1CCCCCn1c(nc3cc(Cl)ccc3c1=O)O2)C(=O)NS(=O)(=O)C1CC1` [(3aR,7S,10S,12R,25aR)-16-chloro-7-cyclopentyl-N-((1R,2R)-1-{[(cyclopropylsulfonyl)amino]carbonyl}-2-ethylcyclopropyl)-5,8,19-trioxo-1,2,3,3a,5,6,7,8,11,12,21,22,23,24,25,25a-hexadecahydro-10H,19H-9,12-methanocyclopenta[18,19][1,10,3,6,12]dioxatriazacyclononadecino[11,12-b]quinazoline-10-carboxamide] has a Ki of 0.1 to 0.5 nM.

`CC[C@@H]1C[C@]1(NC(=O)[C@@H]1C[C@@H]2CN1C(=O)[C@H](C1CCCC1)NC(=O)O[C@@H]1CCC[C@H]1CCCCCn1c(cc3cc(Cl)ccc3c1=O)O2)C(=O)NS(=O)(=O)C1CC1` [(3aR,7S,10S,12R,25aR)-16-chloro-7-cyclopentyl-N-((1R,2R)-1-{[(cyclopropylsulfonyl)amino]carbonyl}-2-ethylcyclopropyl)-5,8,19-trioxo-1,2,3,3a,5,6,7,8,11,12,21,22,23,24,25,25a-hexadecahydro-10H,19H-9,12-methanocyclopenta[18,19][1,10,3,6,12]dioxatriazacyclononadecino[12,11-b]isoquinoline-10-carboxamide] was tested, and the Ki was 0.1 to 0.5 nM.

With `C=C[C@@H]1C[C@]1(NC(=O)[C@@H]1C[C@@H]2CN1C(=O)[C@H](C1CCCC1)NC(=O)O[C@@H]1CCC[C@H]1CCCCCn1c(nc3cc(Cl)ccc3c1=O)O2)C(=O)NS(=O)(=O)C1CC1` [(3aR,7S,10S,12R,25aR)-16-chloro-7-cyclopentyl-N-((1R,2S)-1-{[(cyclopropylsulfonyl)amino]carbonyl}-2-vinylcyclopropyl)-5,8,19-trioxo-1,2,3,3a,5,6,7,8,11,12,21,22,23,24,25,25a-hexadecahydro-10H,19H-9,12-methanocyclopenta[18,19][1,10,3,6,12]dioxatriazacyclononadecino[11,12-b]quinazoline-10-carboxamide] the Ki was < 0.1 nM.

`C=C[C@@H]1C[C@]1(NC(=O)[C@@H]1C[C@@H]2CN1C(=O)[C@H](C1CCCC1)NC(=O)O[C@@H]1CCC[C@H]1CCCCCn1c(cc3cc(Cl)ccc3c1=O)O2)C(=O)NS(=O)(=O)C1CC1` [(3aR,7S,10S,12R,25aR)-16-chloro-7-cyclopentyl-N-((1R,2S)-1-{[(cyclopropylsulfonyl)amino]carbonyl}-2-vinylcyclopropyl)-5,8,19-trioxo-1,2,3,3a,5,6,7,8,11,12,21,22,23,24,25,25a-hexadecahydro-10H,19H-9,12-methanocyclopenta[18,19][1,10,3,6,12]dioxatriazacyclononadecino[12,11-b]isoquinoline-10-carboxamide] was tested, and the Ki was < 0.1 nM.

For `C=C[C@@H]1C[C@]1(NC(=O)[C@@H]1C[C@@H]2CN1C(=O)[C@H](C1CCCC1)NC(=O)O[C@@H]1CCC[C@H]1CCCCCCn1c(cc3ccccc3c1=O)O2)C(=O)NS(=O)(=O)C1CC1` [(3aR,7S,10S,12R,26aR)-7-cyclopentyl-N-((1R,2S)-1-{[(cyclopropylsulfonyl)amino]carbonyl}-2-vinylcyclopropyl)-5,8,19-trioxo-2,3,3a,5,6,7,8,11,12,21,22,23,24,25,26,26a-hexadecahydro-1H,10H,19H-9,12-methanocyclopenta[19,20][1,10,3,6,12]dioxatriazacycloicosino[12,11-b]isoquinoline-10-carboxamide], the Ki was 0.1 to 0.5 nM.

`CC[C@@H]1C[C@]1(NC(=O)[C@@H]1C[C@@H]2CN1C(=O)[C@H](C(C)(C)C)NC(=O)O[C@@H]1CCC[C@H]1CCCCCCn1c(cc3ccccc3c1=O)O2)C(=O)NS(=O)(=O)C1CC1` [(3aR,7S,10S,12R,26aR)-7-tert-butyl-N-((1R,2R)-1-{[(cyclopropylsulfonyl)amino]carbonyl}-2-ethylcyclopropyl)-5,8,19-trioxo-2,3,3a,5,6,7,8,11,12,21,22,23,24,25,26,26a-hexadecahydro-1H,10H,19H-9,12-methanocyclopenta[19,20][1,10,3,6,12]dioxatriazacycloicosino[12,11-b]isoquinoline-10-carboxamide] gave a Ki of 1 to 5 nM.

With `C=C[C@@H]1C[C@]1(NC(=O)[C@@H]1C[C@@H]2CN1C(=O)[C@H](C(C)(C)C)NC(=O)O[C@@H]1CCC[C@H]1CCCCCCn1c(cc3ccccc3c1=O)O2)C(=O)NS(=O)(=O)C1CC1` [(3aR,7S,10S,12R,26aR)-7-tert-butyl-N-((1R,2S)-1-{[(cyclopropylsulfonyl)amino]carbonyl}-2-vinylcyclopropyl)-5,8,19-trioxo-2,3,3a,5,6,7,8,11,12,21,22,23,24,25,26,26a-hexadecahydro-1H,10H,19H-9,12-methanocyclopenta[19,20][1,10,3,6,12]dioxatriazacycloicosino[12,11-b]isoquinoline-10-carboxamide] the Ki was 0.1 to 0.5 nM.

Reference: patent US8461107B2 (Merck Sharp & Dohme Corp., priority 2008, dated 2013)
